Columns and labels:
barnyard grass [1] = test: Test Example 3: herbicidal effect by foliage application, Wagner pot (Table 18, symbol H); assay type: in vivo, barnyard grass (Echinochloa crus-galli); conditions: 320 g/ha
Outline: (§1)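 Plants were sown in alluvial soil held under 0.1–0.5 cm standing water and grown 14 days in a greenhouse at 25–30 °C. An emulsifiable formulation, water-diluted to the set dose, was then sprayed onto the foliage, and effects were scored three weeks later using previously defined criteria.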

Chinese sprangletop = test: Test Example 3: herbicidal effect by foliage application, Wagner pot (Table 18, symbol D); assay type: in vivo, chinese sprangletop (Leptochloa chinensis); conditions: 320 g/ha
Outline: as §1

rice flat sedge = test: Test Example 3: herbicidal effect by foliage application, Wagner pot (Table 18, symbol E); assay type: in vivo, rice flat sedge (Cyperus iria); conditions: 320 g/ha
Outline: as §1

southern crabgrass [2] = test: Test Example 4: herbicidal effect by soil treatment (Table 19, symbol F); assay type: in vivo, southern crabgrass (Digitaria ciliaris); conditions: amount of applied herbicide 320 g/ha
Outline: (§2)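 Step 1: sow seeds in sterilized diluvial soil, cover ~1.5 cm. Step 2: spray diluted emulsion onto soil surface at predetermined rate. Step 3: greenhouse, 25–30° C, three weeks. Step 4: grade effect on each plant by earlier criteria.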

green foxtail [3] = test: Test Example 4: herbicidal effect by soil treatment (Table 19, symbol G); assay type: in vivo, green foxtail (Setaria viridis); conditions: amount of applied herbicide 320 g/ha
Outline: as §2

barnyard grass [4] = test: Test Example 4: herbicidal effect by soil treatment (Table 19, symbol H); assay type: in vivo, barnyard grass (Echinochloa crus-galli); conditions: amount of applied herbicide 320 g/ha
Outline: as §2

wild oat [5] = test: Test Example 4: herbicidal effect by soil treatment (Table 19, symbol I); assay type: in vivo, wild oat (Avena fatua); conditions: amount of applied herbicide 320 g/ha
Outline: as §2

blackgrass [6] = test: Test Example 4: herbicidal effect by soil treatment (Table 19, symbol J); assay type: in vivo, blackgrass (Alopecurus myosuroides); conditions: amount of applied herbicide 320 g/ha
Outline: as §2

Italian ryegrass [7] = test: Test Example 4: herbicidal effect by soil treatment (Table 19, symbol K); assay type: in vivo, Italian ryegrass (Lolium multiflorum); conditions: amount of applied herbicide 320 g/ha
Outline: as §2

windgrass [8] = test: Test Example 4: herbicidal effect by soil treatment (Table 19, symbol L); assay type: in vivo, windgrass (Apera spica-venti); conditions: amount of applied herbicide 320 g/ha
Outline: as §2

velvetleaf [9] = test: Test Example 4: herbicidal effect by soil treatment (Table 19, symbol M); assay type: in vivo, velvetleaf (Abutilon theophrasti); conditions: amount of applied herbicide 320 g/ha
Outline: as §2

redroot pigweed [10] = test: Test Example 4: herbicidal effect by soil treatment (Table 19, symbol N); assay type: in vivo, redroot pigweed (Amaranthus retroflexus); conditions: amount of applied herbicide 320 g/ha
Outline: as §2

lambsquarters [11] = test: Test Example 4: herbicidal effect by soil treatment (Table 19, symbol O); assay type: in vivo, lambsquarters (Chenopodium album); conditions: amount of applied herbicide 320 g/ha
Outline: as §2

chickweed [12] = test: Test Example 4: herbicidal effect by soil treatment (Table 19, symbol P); assay type: in vivo, common chickweed (Stellaria media); conditions: amount of applied herbicide 320 g/ha
Outline: as §2

false cleavers [13] = test: Test Example 4: herbicidal effect by soil treatment (Table 19, symbol Q); assay type: in vivo, false cleavers (Galium spurium); conditions: amount of applied herbicide 320 g/ha
Outline: as §2

persian speedwell [14] = test: Test Example 4: herbicidal effect by soil treatment (Table 19, symbol R); assay type: in vivo, Persian speedwell (Veronica persica); conditions: amount of applied herbicide 320 g/ha
Outline: as §2

southern crabgrass [15] = test: Test Example 5: herbicidal effect by foliage application, plastic box (Table 20, symbol F); assay type: in vivo, southern crabgrass (Digitaria ciliaris); conditions: foliage application, 320 g/ha, three weeks after application
Outline: (§3)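 Foliar spray test: emulsion formulation diluted in water to a set application rate, sprayed onto 14-day-old plants raised in diluvial soil at 25° C to 30° C under glass. Both herbicidal effect and crop effect rated visually three weeks later.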

green foxtail [16] = test: Test Example 5: herbicidal effect by foliage application, plastic box (Table 20, symbol G); assay type: in vivo, green foxtail (Setaria viridis); conditions: foliage application, 320 g/ha, three weeks after application
Outline: as §3

barnyard grass [17] = test: Test Example 5: herbicidal effect by foliage application, plastic box (Table 20, symbol H); assay type: in vivo, barnyard grass (Echinochloa crus-galli); conditions: foliage application, 320 g/ha, three weeks after application
Outline: as §3

wild oat [18] = test: Test Example 5: herbicidal effect by foliage application, plastic box (Table 20, symbol I); assay type: in vivo, wild oat (Avena fatua); conditions: foliage application, 320 g/ha, three weeks after application
Outline: as §3

blackgrass [19] = test: Test Example 5: herbicidal effect by foliage application, plastic box (Table 20, symbol J); assay type: in vivo, blackgrass (Alopecurus myosuroides); conditions: foliage application, 320 g/ha, three weeks after application
Outline: as §3

Italian ryegrass [20] = test: Test Example 5: herbicidal effect by foliage application, plastic box (Table 20, symbol K); assay type: in vivo, Italian ryegrass (Lolium multiflorum); conditions: foliage application, 320 g/ha, three weeks after application
Outline: as §3

windgrass [21] = test: Test Example 5: herbicidal effect by foliage application, plastic box (Table 20, symbol L); assay type: in vivo, windgrass (Apera spica-venti); conditions: foliage application, 320 g/ha, three weeks after application
Outline: as §3

velvetleaf [22] = test: Test Example 5: herbicidal effect by foliage application, plastic box (Table 20, symbol M); assay type: in vivo, velvetleaf (Abutilon theophrasti); conditions: foliage application, 320 g/ha, three weeks after application
Outline: as §3

redroot pigweed [23] = test: Test Example 5: herbicidal effect by foliage application, plastic box (Table 20, symbol N); assay type: in vivo, redroot pigweed (Amaranthus retroflexus); conditions: foliage application, 320 g/ha, three weeks after application
Outline: as §3

lambsquarters [24] = test: Test Example 5: herbicidal effect by foliage application, plastic box (Table 20, symbol O); assay type: in vivo, lambsquarters (Chenopodium album); conditions: foliage application, 320 g/ha, three weeks after application
Outline: as §3

chickweed [25] = test: Test Example 5: herbicidal effect by foliage application, plastic box (Table 20, symbol P); assay type: in vivo, common chickweed (Stellaria media); conditions: foliage application, 320 g/ha, three weeks after application
Outline: as §3

false cleavers [26] = test: Test Example 5: herbicidal effect by foliage application, plastic box (Table 20, symbol Q); assay type: in vivo, false cleavers (Galium spurium); conditions: foliage application, 320 g/ha, three weeks after application
Outline: as §3

persian speedwell [27] = test: Test Example 5: herbicidal effect by foliage application, plastic box (Table 20, symbol R); assay type: in vivo, Persian speedwell (Veronica persica); conditions: foliage application, 320 g/ha, three weeks after application
Outline: as §3

Compound	herbicidal effect on H (barnyard grass), rating 0-5 (barnyard grass [1])	herbicidal effect on D (Chinese sprangletop), rating 0-5 (Chinese sprangletop)	herbicidal effect on E (rice flat sedge), rating 0-5 (rice flat sedge)	herbicidal effect rating, F: southern crabgrass (southern crabgrass [2])	herbicidal effect rating, G: green foxtail (green foxtail [3])	herbicidal effect rating, H: barnyard grass (barnyard grass [4])	herbicidal effect rating, I: wild oat (wild oat [5])	herbicidal effect rating, J: blackgrass (blackgrass [6])	herbicidal effect rating, K: Italian ryegrass (Italian ryegrass [7])	herbicidal effect rating, L: windgrass (windgrass [8])	herbicidal effect rating, M: velvetleaf (velvetleaf [9])	herbicidal effect rating, N: redroot pigweed (redroot pigweed [10])	herbicidal effect rating, O: lambsquarters (lambsquarters [11])	herbicidal effect rating, P: chickweed (chickweed [12])	herbicidal effect rating, Q: false cleavers (false cleavers [13])	herbicidal effect rating, R: persian speedwell (persian speedwell [14])	herbicidal effect grade, F: southern crabgrass (southern crabgrass [15])	herbicidal effect grade, G: green foxtail (green foxtail [16])	herbicidal effect grade, H: barnyard grass (barnyard grass [17])	herbicidal effect grade, I: wild oat (wild oat [18])	further results
CCc1ccccc1-c1sc2ccccc2c1-c1c(O)c(C)nn(C)c1=O [1-003]	1 (Herbicidal rate of 5% or more and less than 20%)	3 (Herbicidal rate of 40% or more and less than 70%)	3 (Herbicidal rate of 40% or more and less than 70%)	3 (Herbicidal rate of 40% or more and less than 70%)	4 (Herbicidal rate of 70% or more and less than 90%)	0 (Herbicidal rate of 5% or less (almost no effect))	0 (Herbicidal rate of 5% or less (almost no effect))	0 (Herbicidal rate of 5% or less (almost no effect))	0 (Herbicidal rate of 5% or less (almost no effect))	0 (Herbicidal rate of 5% or less (almost no effect))	0 (Herbicidal rate of 5% or less (almost no effect))	2 (Herbicidal rate of 20% or more and less than 40%)	3 (Herbicidal rate of 40% or more and less than 70%)	4 (Herbicidal rate of 70% or more and less than 90%)	3 (Herbicidal rate of 40% or more and less than 70%)	2 (Herbicidal rate of 20% or more and less than 40%)	4 (Herbicidal rate of 70% or more and less than 90%)	5 (Herbicidal rate of 90% or more (almost completely withered))	3 (Herbicidal rate of 40% or more and less than 70%)	3 (Herbicidal rate of 40% or more and less than 70%)	herbicidal effect grade, J: blackgrass (blackgrass [19]): 3 (Herbicidal rate of 40% or more and less than 70%); herbicidal effect grade, K: Italian ryegrass (Italian ryegrass [20]): 3 (Herbicidal rate of 40% or more and less than 70%); herbicidal effect grade, L: windgrass (windgrass [21]): 5 (Herbicidal rate of 90% or more (almost completely withered)); herbicidal effect grade, M: velvetleaf (velvetleaf [22]): 4 (Herbicidal rate of 70% or more and less than 90%); herbicidal effect grade, N: redroot pigweed (redroot pigweed [23]): 3 (Herbicidal rate of 40% or more and less than 70%); herbicidal effect grade, O: lambsquarters (lambsquarters [24]): 0 (Herbicidal rate of 5% or less (almost no effect)); herbicidal effect grade, P: chickweed (chickweed [25]): 5 (Herbicidal rate of 90% or more (almost completely withered)); herbicidal effect grade, Q: false cleavers (false cleavers [26]): 5 (Herbicidal rate of 90% or more (almost completely withered)); herbicidal effect grade, R: persian speedwell (persian speedwell [27]): 5 (Herbicidal rate of 90% or more (almost completely withered))
CCCCOc1ccccc1-c1sc2ccccc2c1-c1c(OC(=O)CCC)c(C)nn(C)c1=O [1-023]	1 (Herbicidal rate of 5% or more and less than 20%)	0 (Herbicidal rate of 5% or less (almost no effect))	3 (Herbicidal rate of 40% or more and less than 70%)	0 (Herbicidal rate of 5% or less (almost no effect))	2 (Herbicidal rate of 20% or more and less than 40%)	0 (Herbicidal rate of 5% or less (almost no effect))	0 (Herbicidal rate of 5% or less (almost no effect))	0 (Herbicidal rate of 5% or less (almost no effect))	0 (Herbicidal rate of 5% or less (almost no effect))	0 (Herbicidal rate of 5% or less (almost no effect))	0 (Herbicidal rate of 5% or less (almost no effect))	0 (Herbicidal rate of 5% or less (almost no effect))	0 (Herbicidal rate of 5% or less (almost no effect))	0 (Herbicidal rate of 5% or less (almost no effect))	0 (Herbicidal rate of 5% or less (almost no effect))	0 (Herbicidal rate of 5% or less (almost no effect))	0 (Herbicidal rate of 5% or less (almost no effect))	0 (Herbicidal rate of 5% or less (almost no effect))	0 (Herbicidal rate of 5% or less (almost no effect))	0 (Herbicidal rate of 5% or less (almost no effect))	herbicidal effect grade, J: blackgrass (blackgrass [19]): 0 (Herbicidal rate of 5% or less (almost no effect)); herbicidal effect grade, K: Italian ryegrass (Italian ryegrass [20]): 0 (Herbicidal rate of 5% or less (almost no effect)); herbicidal effect grade, L: windgrass (windgrass [21]): 0 (Herbicidal rate of 5% or less (almost no effect)); herbicidal effect grade, M: velvetleaf (velvetleaf [22]): 0 (Herbicidal rate of 5% or less (almost no effect)); herbicidal effect grade, N: redroot pigweed (redroot pigweed [23]): 0 (Herbicidal rate of 5% or less (almost no effect)); herbicidal effect grade, O: lambsquarters (lambsquarters [24]): 0 (Herbicidal rate of 5% or less (almost no effect)); herbicidal effect grade, P: chickweed (chickweed [25]): 5 (Herbicidal rate of 90% or more (almost completely withered)); herbicidal effect grade, Q: false cleavers (false cleavers [26]): 2 (Herbicidal rate of 20% or more and less than 40%); herbicidal effect grade, R: persian speedwell (persian speedwell [27]): 3 (Herbicidal rate of 40% or more and less than 70%)
